Results on 37 molecules are retold here after US11021448B2, “1,3-dihydro-1,4-benzodiazepine-2-thiones for the treatment of CNS related diseases” (priority 2016, dated 2021).

The target of the first assay is T1, hM1 (Homo sapiens, UniProt P11229).
T1 construct: expressed in transfected cells; host or cells: CHO
T1 sequence (P11229 1-460): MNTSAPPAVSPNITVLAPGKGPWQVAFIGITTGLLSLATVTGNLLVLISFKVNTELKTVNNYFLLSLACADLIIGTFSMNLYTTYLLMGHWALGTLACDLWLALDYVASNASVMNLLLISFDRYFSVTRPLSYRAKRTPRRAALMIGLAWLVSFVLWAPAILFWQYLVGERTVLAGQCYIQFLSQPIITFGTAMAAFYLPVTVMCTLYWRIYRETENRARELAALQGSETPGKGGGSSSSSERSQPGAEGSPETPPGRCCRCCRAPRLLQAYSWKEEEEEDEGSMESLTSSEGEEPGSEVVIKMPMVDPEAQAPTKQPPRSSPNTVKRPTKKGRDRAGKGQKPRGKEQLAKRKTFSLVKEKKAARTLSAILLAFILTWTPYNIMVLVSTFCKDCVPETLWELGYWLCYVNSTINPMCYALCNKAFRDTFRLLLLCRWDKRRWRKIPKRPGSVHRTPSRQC
In words: FLIPR intracellular calcium assay for modulator activity at the muscarinic M1 receptor in CHO human M1 cells. Type of assay: cell-based.
Details: not given
The procedure: The assay study the effect of several concentrations of test compounds on basal or acetylcholine-stimulated Ca^2+ levels using FLIPR.
The cell plate and the diluted compounds (1% DMSO final concentration) are placed on the platform of the FLIPR and the door closed. A signal test to check background fluorescence and basal fluorescence signal is performed. Laser intensity is adjusted if necessary. Two minutes preincubation with the diluted test compounds is provide to determine any agonist activity on the M1 receptor by comparison to 30 nM Acetylcholine control. In order to determine any modulator activity the diluted compounds were added to cells and after two minutes preincubation, the EC20 of acetylcholine is added followed by another two minutes preincubation before the measurement of intracellular Ca^2+ with a FLIPR (Molecular Devices).
Turning to `S=C1Nc2ccc(Cl)cc2C(c2ccccc2)=N[C@@H]1Cc1ccccc1` (single isomer, unassigned) [Example 21], the half-inhibitory concentration (IC50) was 1.14 µM. Still for that read-out and setting: the figure for `S=C1Nc2ccc(Cl)cc2C(c2ccccc2)=N[C@H]1Cc1ccccc1` (single isomer, unassigned) [Example 30] is 0.251 µM; for `CC(C)[C@@H]1N=C(c2ccccn2)c2cc(Br)ccc2NC1=S` [Example 2, (3S)-7-bromo-3-propan-2-yl-5-pyridin-2-yl-1,3-dihydro-1,4-benzodiazepine-2-thione] it is 0.289 µM; for `S=C1Nc2ccc(Cl)cc2C(c2ccccc2)=N[C@H]1CC1CC1` [Example 3, (3S)-7-chloro-3-(cyclopropylmethyl)-5-phenyl-1,3-dihydro-1,4-benzodiazepine-2-thione] it is 0.311 µM. Still for that read-out and setting: then `CC[C@@H]1N=C(c2ccccc2)c2cc(Cl)ccc2NC1=S` [Example 4, (3S)-7-chloro-3-ethyl-5-phenyl-1,3-dihydro-1,4-benzodiazepine-2-thione], with 0.103 µM. Same read-out and setting: the figure for `CCC[C@]1(C)N=C(c2ccccc2)c2cc(Cl)ccc2NC1=S` [Example 6, (3S)-7-chloro-3-methyl-5-phenyl-3-propyl-1H-1,4-benzodiazepine-2-thione] is 0.104 µM. For `CCC[C@@H]1N=C(c2ccccc2)c2cc(Cl)ccc2NC1=S` [Example 7, (3S)-7-chloro-5-phenyl-3-propyl-1,3-dihydro-1,4-benzodiazepine-2-thione], the IC50 stood at 0.187 µM. Still for that read-out and setting: the figure for `FC(F)(F)C[C@@H]1N=C(c2ccccc2)c2cc(Cl)ccc2NC1=S` [Example 8, (3S)-7-chloro-5-phenyl-3-(2,2,2-trifluoroethyl)-1,3-dihydro-1,4-benzodiazepine-2-thione] is 0.238 µM; for `CSCC[C@H]1N=C(c2ccccc2)c2cc(Cl)ccc2NC1=S` [Example 9, (3R)-7-chloro-3-(2-methylsulfanylethyl)-5-phenyl-1,3-dihydro-1,4-benzodiazepine-2-thione] it is 0.504 µM; for `Fc1ccccc1C1=N[C@@H](C(F)(F)F)C(=S)Nc2ccc(Cl)cc21` [Example 10, (3S)-7-chloro-5-(2-fluorophenyl)-3-(trifluoromethyl)-1,3-dihydro-1,4-benzodiazepine-2-thione] it is 0.61 µM. With `Fc1ccccc1C1=N[C@H](C(F)(F)F)C(=S)Nc2ccc(Cl)cc21` [Example 11, (3R)-7-chloro-5-(2-fluorophenyl)-3-(trifluoromethyl)-1,3-dihydro-1,4-benzodiazepine-2-thione], the IC50 was found to be 0.622 µM. Still for that read-out and setting: the figure for `CC1N=C(c2ccccc2)c2cc([N+](=O)[O-])ccc2NC1=S` (stereo not shown) [Example 12, 3-methyl-7-nitro-5-phenyl-1,3-dihydro-1,4-benzodiazepine-2-thione] is 0.732 µM; for `Cc1ccc2c(c1)C(c1ccccc1F)=N[C@@H](C(C)C)C(=S)N2` [Example 13, (3S)-5-(2-fluorophenyl)-3-isopropyl-7-methyl-1,3-dihydro-1,4-benzodiazepine-2-thione] it is 0.062 µM; for `CC(C)C1N=C(c2ccccc2)c2cc(Cl)ccc2NC1=S` (stereo not shown) [Example 15, 7-chloro-3-isopropyl-5-phenyl-1,3-dihydro-1,4-benzodiazepine-2-thione] it is 0.064 µM.

For `CC(C)[C@@H]1N=C(c2ccccc2)c2cc(Cl)ccc2NC1=S` [Example 16, (3S)-7-chloro-3-isopropyl-5-phenyl-1,3-dihydro-1,4-benzodiazepine-2-thione], the 50% inhibitory concentration (IC50) was 0.07 µM.

`CC(C)[C@@H]1N=C(c2ccccc2)c2cc(C(F)(F)F)ccc2NC1=S` [Example 18, (3S)-3-isopropyl-5-phenyl-7-(trifluoromethyl)-1,3-dihydro-1,4-benzodiazepine-2-thione]: the concentration for half-maximal inhibition (IC50) stood at 0.071 µM. Still for that read-out and setting: then `CC(C)[C@@H]1N=C(c2ccccc2)c2cc(-c3ccccc3)ccc2NC1=S` [Example 19, (3S)-3-isopropyl-5,7-diphenyl-1,3-dihydro-1,4-benzodiazepine-2-thione], with 1.47 µM.

In the case of `FC(F)(F)c1ccc2c(c1)C(C1CCCCC1)=NCC(=S)N2` [Example 20, 5-cyclohexyl-7-(trifluoromethyl)-1,3-dihydro-1,4-benzodiazepine-2-thione], the half-inhibitory concentration (IC50) is 1.95 µM. Same read-out and setting: then `CC(C)[C@@H]1N=C(c2cccc(Cl)c2)c2cc(Cl)ccc2NC1=S` [Example 22, (3S)-7-chloro-5-(3-chlorophenyl)-3-isopropyl-1,3-dihydro-1,4-benzodiazepine-2-thione], with 0.172 µM; and `CC(C)[C@@H]1N=C(c2ccccc2F)c2ccc(Cl)cc2NC1=S` [Example 23, (3S)-8-chloro-5-(2-fluorophenyl)-3-isopropyl-1,3-dihydro-1,4-benzodiazepine-2-thione], with 0.399 µM; and `S=C1Nc2ccc(Cl)cc2C(c2ccccc2)=N[C@H]1C1CC1` [Example 24, (3S)-7-chloro-3-cyclopropyl-5-phenyl-1,3-dihydro-1,4-benzodiazepine-2-thione], with 0.165 µM. The same measure, in the same setting: the figure for `CC(C)[C@@H]1N=C(c2ccccc2)c2cc(OC(F)(F)F)ccc2NC1=S` [Example 25, (3S)-3-isopropyl-5-phenyl-7-(trifluoromethoxy)-1,3-dihydro-1,4-benzodiazepine-2-thione] is 0.232 µM.

In the case of `CC(C)(O)C1N=C(c2ccccc2)c2cc(Cl)ccc2NC1=S` (stereo not shown) [Example 26, 7-chloro-3-(1-hydroxy-1-methyl-ethyl)-5-phenyl-1,3-dihydro-1,4-benzodiazepine-2-thione], the IC50 is 1.85 µM. On to `CC(C)C[C@@H]1N=C(c2ccccc2F)c2cc(Cl)ccc2NC1=S` [Example 27, (3S)-7-Chloro-5-(2-fluorophenyl)-3-isobutyl-1,3-dihydro-1,4-benzodiazepine-2-thione], for which the concentration for half-maximal inhibition (IC50) is 0.641 µM. On to `S=C1Nc2ccccc2C(c2ccccc2)=NC1Cc1ccc(Cl)c(Cl)c1` (stereo not shown) [Example 28, 3-[(3,4-Dichlorophenyl)methyl]-5-phenyl-1,3-dihydro-1,4-benzodiazepine-2-thione], for which the half-maximal inhibitory concentration (IC50) was 1.67 µM. On the same count and under the same terms, the figure for `Fc1ccccc1C1=N[C@@H](c2ccccc2)C(=S)Nc2ccc(Cl)cc21` [Example 29, (3S)-7-Chloro-5-(2-fluorophenyl)-3-phenyl-1,3-dihydro-1,4-benzodiazepine-2-thione] is 1.47 µM; for `S=C1Nc2ccc(Cl)cc2C(c2ccccc2)=NC1c1ccccc1` (stereo not shown) [Example 31, 7-chloro-3,5-diphenyl-1,3-dihydro-1,4-benzodiazepine-2-thione] it is 0.799 µM. For the molecule `CC(C)[C@@H]1N=C(c2cccnc2)c2cc(Br)ccc2NC1=S` [Example 32, (3S)-7-bromo-3-isopropyl-5-(3-pyridyl)-1,3-dihydro-1,4-benzodiazepine-2-thione], the half-inhibitory concentration (IC50) came out at 0.275 µM. For the molecule `CSCC[C@@H]1N=C(c2ccccc2)c2cc(Cl)ccc2NC1=S` [Example 33, (3S)-7-chloro-3-(2-methylsulfanylethyl)-5-phenyl-1,3-dihydro-1,4-benzodiazepine-2-thione], the IC50 was 1.2 µM. For the molecule `CC(C)[C@H]1N=C(c2ccccc2F)c2cc(Cl)ccc2NC1=S` [Example 34, (3R)-7-chloro-5-(2-fluorophenyl)-3-isopropyl-1,3-dihydro-1,4-benzodiazepine-2-thione], the IC50 was found to be 0.42 µM.

With `CC(C)[C@H]1N=C(c2ccccc2)c2cc(Cl)ccc2NC1=S` [Example 35, (3R)-7-chloro-3-isopropyl-5-phenyl-1,3-dihydro-1,4-benzodiazepine-2-thione], the IC50 was found to be 0.521 µM. For `CC(C)C[C@@H]1N=C(c2ccccc2)c2cc(Cl)ccc2NC1=S` [Example 36, (S)-7-Chloro-3-isobutyl-5-phenyl-1,3-dihydro-benzo[e][1,4]diazepine-2-thione], the IC50 was 0.317 µM.

Take `CCC1N=C(c2ccccc2F)c2cc(N)ccc2NC1=S` (stereo not shown) [Example 37, 7-amino-3-ethyl-5-(2-fluorophenyl)-1,3-dihydro-1,4-benzodiazepine-2-thione]: the concentration for half-maximal inhibition (IC50) was 6.06 µM. For `COC(C)C1N=C(c2ccccc2)c2cc(Cl)ccc2NC1=S` (stereo not shown) [Example 38, 7-chloro-3-(1-methoxyethyl)-5-phenyl-1,3-dihydro-1,4-benzodiazepine-2-thione], the IC50 came out at 0.354 µM.

The same assay, now with this note: CHO human M1, with EC20 of acetylcholine, FLIPR; read-out: IC50 value hM1 (converted).
With `CC(C)[C@@H]1N=C(c2ccc(F)cc2)c2cc(OC(F)(F)F)ccc2NC1=S` [Example 1, (3S)-5-(4-fluorophenyl)-3-isopropyl-7-(trifluoromethoxy)-1,3-dihydro-1,4-benzodiazepine-2-thione], the IC50 was 0.312 µM.

For `CCCC1=NCC(=S)Nc2ccc(Cl)cc21` [Example 17, 7-chloro-5-propyl-1,3-dihydro-1,4-benzodiazepine-2-thione], the IC50 was 1.28 µM. Still for that read-out and setting: then `CC(C)[C@@H]1N=C(C2CCCCC2)c2cc(Cl)ccc2NC1=S` [Example 39, (3S)-7-chloro-5-cyclohexyl-3-isopropyl-1,3-dihydro-1,4-benzodiazepine-2-thione], with 0.414 µM.
